According to publication PMC5761471 (Journal of Pharmaceutical Analysis, 2014):

How the values were obtained:
[1] = Bioequivalence study, oral 400 mg raltegravir tablets; assay type: in vivo, human; conditions: healthy Indian subjects
[2] = stated, not tested in this paper; cited from earlier work
[3] = Stability of raltegravir in spiked human plasma and processed extracts; assay type: in vitro ADME; conditions: n=6
[4] = Stability of standard stock solutions; assay type: physicochemical; conditions: stock solution in methanol, 25 °C
[5] = cited from earlier work
[6] = Bench-top, room temperature (25 °C), 8 h, nominal 6.0 ng/mL
[7] = Bench-top, room temperature (25 °C), 8 h, nominal 5000 ng/mL
[8] = Dry extract in deep freezer at −20 °C for 65 h, nominal 6.0 ng/mL
[9] = Dry extract in deep freezer at −20 °C for 65 h, nominal 5000 ng/mL
[10] = Freeze-thaw after 5th cycle at −20 °C, nominal 6.0 ng/mL
[11] = Freeze-thaw after 5th cycle at −20 °C, nominal 5000 ng/mL
[12] = Freeze-thaw after 5th cycle at −70 °C, nominal 6.0 ng/mL
[13] = Freeze-thaw after 5th cycle at −70 °C, nominal 5000 ng/mL
[14] = Long-term at −20 °C for 42 days, nominal 6.0 ng/mL
[15] = Long-term at −20 °C for 42 days, nominal 5000 ng/mL
[16] = Long-term at −70 °C for 42 days, nominal 6.0 ng/mL
[17] = Long-term at −70 °C for 42 days, nominal 5000 ng/mL
[18] = Wet extract (autosampler) at 4 °C for 65 h, nominal 6.0 ng/mL
[19] = Wet extract (autosampler) at 4 °C for 65 h, nominal 5000 ng/mL
[20] = Wet extract at 25 °C for 4 h, nominal 6.0 ng/mL
[21] = Wet extract at 25 °C for 4 h, nominal 5000 ng/mL

Compound: Cc1nnc(C(=O)NC(C)(C)c2nc(C(=O)NCc3ccc(F)cc3)c(O[C@@H]3O[C@H](C(=O)O)[C@@H](O)[C@H](O)[C@H]3O)c(=O)n2C)o1 [RAL-Glu, raltegravir glucuronide]
- presence of circulating metabolite in plasma of subject samples ([1]; up to 4 h after oral administration of the drug): complete absence
- pharmacological activity [2]: pharmacologically inactive

Compound: Cc1nnc(C(=O)NC(C)(C)c2nc(C(=O)NCc3ccc(F)cc3)c(O)c(=O)n2C)o1 [raltegravir]
- time required to reach peak plasma concentration ([1]; single 400 mg oral dose, fasting): ~ 2 h
- Change [3, 6]: 7.17%
- Mean stability sample ±SD [3, 6]: 6.43 ± 0.15 ng/mL
- Change [3, 7]: −5.81%
- Mean stability sample ±SD [3, 7]: 4709.67 ± 72.69 ng/mL
- Change [3, 8]: 3.83%
- Mean stability sample ±SD [3, 8]: 6.23 ± 0.25 ng/mL
- Change [3, 9]: −2.52%
- Mean stability sample ±SD [3, 9]: 4874.00 ± 183.04 ng/mL
- Change [3, 10]: 2.83%
- Mean stability sample ±SD [3, 10]: 6.17 ± 0.22 ng/mL
- Change [3, 11]: −4.54%
- Mean stability sample ±SD [3, 11]: 4773.50 ± 106.40 ng/mL
- Change [3, 12]: 2.83%
- Mean stability sample ±SD [3, 12]: 6.17 ± 0.24 ng/mL
- Change [3, 13]: −3.90%
- Mean stability sample ±SD [3, 13]: 4804.83 ± 218.23 ng/mL
- Change [3, 14]: −1.00%
- Mean stability sample ±SD [3, 14]: 5.94 ± 0.26 ng/mL
- Change [3, 15]: −3.12%
- Mean stability sample ±SD [3, 15]: 4844.00 ± 247.40 ng/mL
- Change [3, 16]: 3.33%
- Mean stability sample ±SD [3, 16]: 6.20 ± 0.23 ng/mL
- Change [3, 17]: −2.77%
- Mean stability sample ±SD [3, 17]: 4861.50 ± 315.59 ng/mL
- Change [3, 18]: 4.00%
- Mean stability sample ±SD [3, 18]: 6.24 ± 0.28 ng/mL
- Change [3, 19]: −3.24%
- Mean stability sample ±SD [3, 19]: 4838.17 ± 209.68 ng/mL
- Change [3, 20]: 3.83%
- Mean stability sample ±SD [3, 20]: 6.23 ± 0.25 ng/mL
- Change [3, 21]: −0.81%
- Mean stability sample ±SD [3, 21]: 4959.33 ± 287.84 ng/mL
- short-term stability of stock solution (stable up to) [4]: up to 8 h
- increase of area under the plasma-time curve (AUC) with a high fat meal [5]: about 19%
